Columns and labels:
Assay type in all cases: in vivo
stressed mice [1] = assay: Tail Suspension Test (TST), UCMS-stressed mice, Example 7; conditions: 30 mg/kg (escitalopram 15 mg/kg) i.p., 3 weeks, vs vehicle
Method: (§1) Animals. ICR outbred mice (Envigo RMS (Harlen), Israel) are kept in the vivarium of the Open University lab in Hadassah medical center, Jerusalem. Mice are kept on a reversed 12 h light/dark cycle and given ad libitum access to food and water. All experiments are performed during the dark phase under red light (7:00-19:00). All experiments have been approved by the committee for animal care and use according to the NIH guidelines. Drugs. Drugs are dissolved in saline and 1% DMSO to the desired concentration and administered i.p. Herbal mixture and Shan-zha (30 mg/kg) will be prepared by dissolving each component (KPC Products, Inc., CA, USA) to a final concentration of 0.47 mg/ml. […] Unpredictable chronic mild stress (UCMS). Mice are exposed to UCMS for 4 weeks at the age of 4 weeks as previously described. Tail Suspension Test (TST). This test is based upon the evaluation of immobility as a measure of behavioral despair and are performed as previously described. Depressive-like behavior are expressed as the time the mouse was immobile.

stressed mice [2] = assay: Forced Swim Test (FST), UCMS-stressed mice, Example 7; conditions: 30 mg/kg (escitalopram 15 mg/kg) i.p., 3 weeks, vs vehicle
Method: as §1, with “Forced Swim” for “Tail Suspension”, “(FST).” for “(TST).”, “immobile defined as cessation of limb movements except minor movement necessary to keep the mouse afloat.” for “immobile.”

[3] = Body weight monitoring, stressed mice; conditions: UCMS-stressed mice, Shan-zha and NHT 30 mg/kg, escitalopram 15 mg/kg i.p., 3 weeks, vs vehicle
Method: Crataegus pinnatifida, Triticum aestivum, Lilium brownii and Fructus zizyphi jujuba were purchased as freeze-dried granules (KPC Products, Inc., Irvine, CA, USA). Each herb was dissolved in saline with 1% dimethylsulfoxide (DMSO) to a final concentration of 0.47 mg/ml and injected i.p. individually (30 mg/kg) or with the other components to form the formula (NHT, 30 mg/kg). […] Vehicle treatment included i.p. injection of saline with 1% DMSO. All treatments were carried out for 3 weeks. Mice were weighed every 3 days throughout the treatment period. Change in weight was calculated as final (weight-initial weight)/initial weight×100.

CN(C)CCC[C@@]1(c2ccc(F)cc2)OCc2cc(C#N)ccc21 [escitalopram]
depressive-like behavior in the TST (stressed mice [1]): exhibited reduced depressive-like behavior in the TST compared to vehicle-treated stressed mice | depressive-like behavior in the FST (stressed mice [2]): exhibited reduced depressive-like behavior in the FST compared to vehicle-treated stressed mice | weight change [3]: significantly increased weight compared to vehicle | weight change ([3]; listed as Escitalopram): higher weight gain in comparison with vehicle-treated mice

Reference: patent publication US20240016875A1, “SHAN-ZHA FOR THE TREATMENT OF DEPRESSION AND ANXIETY DISORDERS” (THE OPEN UNIVERSITY, priority 2020, published 2024)
